Measurements reported in PubChem BioAssay (NCI).
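96-well plates; 48 h exposure; 5 concentrations. Endpoints by linear interpolation between flanking doses. Not reached: highest tested concentration assigned. The concentration for full growth arrest is given as TGI.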

Key:
Experiment in all cases: DTP human tumour cell line panel, 48 h
[1] = system: HCC-2998 colon
[2] = system: OVCAR-5 ovarian
[3] = system: MDA-N
[4] = system: BT-549 breast
[5] = system: 786-0 renal
[6] = system: COLO 205 colon
[7] = system: CAKI-1 renal
[8] = system: SNB-19 CNS
[9] = system: SK-OV-3 ovarian
[10] = system: SF-268 CNS
[11] = system: NCI/ADR-RES ovarian
[12] = system: MALME-3M melanoma
[13] = system: KM12 colon
[14] = system: LOX IMVI melanoma
[15] = system: DU-145 prostate
[16] = system: EKVX NSCLC
[17] = system: MDA-MB-231 breast
[18] = system: NCI-H460 lung
[19] = system: UACC-62 melanoma
[20] = system: HT29 colon
[21] = system: NCI-H522 lung
[22] = system: HOP-62 NSCLC
[23] = system: OVCAR-8 ovarian
[24] = system: M14 melanoma
[25] = system: MCF7 breast
[26] = system: MOLT-4 leukemia
[27] = system: OVCAR-4 ovarian
[28] = system: NCI-H23 lung
[29] = system: SK-MEL-2 melanoma
[30] = system: PC-3 prostate
[31] = system: NCI-H226 lung
[32] = system: RXF 393 renal
[33] = system: HS 578T breast
[34] = system: HOP-92 NSCLC
[35] = system: SR leukemia
[36] = system: UACC-257 melanoma
[37] = system: IGROV1 ovarian
[38] = system: CCRF-CEM leukemia
[39] = system: U251 CNS
[40] = system: ACHN renal
[41] = system: HCT-116 colon
[42] = system: K-562 leukemia
[43] = system: TK-10 renal
[44] = system: A498 renal
[45] = system: HL-60(TB) leukemia
[46] = system: SNB-75 CNS
[47] = system: UO-31 renal
[48] = system: SF-539 CNS
[49] = system: T-47D breast
[50] = system: SK-MEL-28 melanoma
[51] = system: RPMI-8226 leukemia
[52] = system: SF-295 CNS
[53] = system: SW-620 colon
[54] = system: SK-MEL-5 melanoma
[55] = system: SN12C renal
[56] = system: A549 NSCLC
[57] = system: OVCAR-3 ovarian
[58] = system: HCT-15 colon
[59] = system: MDA-MB-435

## COc1cc(Oc2nc3c(N)cc(C(F)(F)F)cc3nc2-c2ccccc2)cc(OC)c1OC
[1]
  TGI: > 55.1 µM
[2]
  TGI: > 100 µM
[3]
  TGI: 3.08 µM
[4]
  TGI: 34.5 µM
[5]
  TGI: > 41.1 µM
[6]
  TGI: > 80.7 µM
[7]
  TGI: > 45.2 µM
[8]
  TGI: 27.6 µM
[9]
  TGI: > 66.5 µM
[10]
  TGI: > 100 µM
[11]
  TGI: > 26.1 µM
[12]
  TGI: 11.5 µM
[13]
  TGI: > 100 µM
[14]
  TGI: > 100 µM
[15]
  TGI: > 100 µM
[16]
  TGI: > 100 µM
[17]
  TGI: > 100 µM
[18]
  TGI: > 100 µM
[19]
  TGI: 15.9 µM
[20]
  TGI: 5.31 µM
[21]
  TGI: 18.8 µM
[22]
  TGI: > 46.7 µM
[23]
  TGI: > 46.3 µM
[24]
  TGI: > 100 µM
[25]
  TGI: > 50.5 µM
[26]
  TGI: > 100 µM
[27]
  TGI: > 100 µM
[28]
  TGI: > 63.6 µM
[29]
  TGI: 21 µM
[30]
  TGI: 29.5 µM
[31]
  TGI: > 78.2 µM
[32]
  TGI: 52 µM
[33]
  TGI: > 53.8 µM
[34]
  TGI: > 65.4 µM
[35]
  TGI: > 100 µM
[36]
  TGI: 43.9 µM
[37]
  TGI: > 24.3 µM
[38]
  TGI: > 31.6 µM
[39]
  TGI: > 45.7 µM
[40]
  TGI: 32.5 µM
[41]
  TGI: > 45.3 µM
[42]
  TGI: 6.6 µM
[43]
  TGI: > 100 µM
[44]
  TGI: 81.5 µM
[45]
  TGI: > 100 µM
[46]
  TGI: 26 µM
[47]
  TGI: > 100 µM
[48]
  TGI: 14.3 µM
[49]
  TGI: > 100 µM
[50]
  TGI: > 68.7 µM
[51]
  TGI: > 100 µM
[52]
  TGI: > 29 µM
[53]
  TGI: > 26.2 µM
[54]
  TGI: 48.6 µM
[55]
  TGI: > 100 µM
[56]
  TGI: > 100 µM
[57]
  TGI: 13.5 µM
[58]
  TGI: > 100 µM

## CCOC(=O)Nc1nn(C)c(=NCc2ccccc2)s1
[2]
  TGI: > 100 µM
[3]
  TGI: > 100 µM
[4]
  TGI: > 100 µM
[5]
  TGI: > 100 µM
[6]
  TGI: > 100 µM
[7]
  TGI: > 100 µM
[8]
  TGI: > 100 µM
[9]
  TGI: > 100 µM
[13]
  TGI: > 100 µM
[14]
  TGI: > 100 µM
[15]
  TGI: > 100 µM
[16]
  TGI: > 100 µM
[17]
  TGI: > 100 µM
[18]
  TGI: > 100 µM
[19]
  TGI: > 100 µM
[21]
  TGI: > 100 µM
[22]
  TGI: > 100 µM
[25]
  TGI: > 100 µM
[26]
  TGI: > 100 µM
[27]
  TGI: > 100 µM
[29]
  TGI: > 100 µM
[30]
  TGI: > 100 µM
[32]
  TGI: > 100 µM
[33]
  TGI: > 100 µM
[34]
  TGI: > 100 µM
[35]
  TGI: > 100 µM
[36]
  TGI: > 100 µM
[37]
  TGI: > 100 µM
[38]
  TGI: > 100 µM
[39]
  TGI: > 100 µM
[40]
  TGI: > 100 µM
[41]
  TGI: > 100 µM
[42]
  TGI: > 100 µM
[43]
  TGI: > 100 µM
[44]
  TGI: > 100 µM
[45]
  TGI: > 100 µM
[46]
  TGI: > 100 µM
[47]
  TGI: > 100 µM
[48]
  TGI: > 100 µM
[49]
  TGI: > 100 µM
[50]
  TGI: > 100 µM
[51]
  TGI: > 100 µM
[52]
  TGI: > 100 µM
[53]
  TGI: > 100 µM
[54]
  TGI: > 100 µM
[55]
  TGI: > 100 µM
[56]
  TGI: > 100 µM
[59]
  TGI: > 100 µM
[57]
  TGI: > 100 µM
[58]
  TGI: > 100 µM
